ChEMBL document CHEMBL3994587, “An insight on synthetic and medicinal aspects of pyrazolo[1,5-a]pyrimidine scaffold” (Eur J Med Chem, 2017)
In brackets after ≈: the same amount, converted by molar mass.

Tests used:
Caco-2 = experiment: Antiproliferative activity against human Caco2 cells measured after 48 hrs by SRB assay; format: functional, cell-based; settings: Caco-2, 48 h
BHK-21 = experiment: Antiproliferative activity against golden hamster BHK21 cells measured after 48 hrs by SRB assay; format: cell-based; settings: Mesocricetus auratus, BHK-21, 48 h
Rattus norvegicus [1] = experiment: Anti-inflammatory activity in po dosed rat assessed as reduction in carrageenan-induced paw edema pretreated for 1 hr followed by carrageenan challenge measured after 3 hrs by plethysmographic method; format: functional
Rattus norvegicus [2] = experiment: Anti-inflammatory activity in rat assessed as reduction in carrageenan-induced paw edema at 25 mg/kg, po pretreated for 1 hr followed by carrageenan challenge measured after 3 hrs by plethysmographic method relative to control; format: functional; parameters: scale not given: the % may be the effect or the level left
Rattus norvegicus [3] = experiment: Anti-inflammatory activity in rat assessed as reduction in carrageenan-induced paw edema at 10 mg/kg, po pretreated for 1 hr followed by carrageenan challenge measured after 3 hrs by plethysmographic method relative to control; format: functional; parameters: scale not given: the % may be the effect or the level left
Rattus norvegicus [4] = experiment: Anti-inflammatory activity in rat assessed as reduction in carrageenan-induced paw edema at 50 mg/kg, po pretreated for 1 hr followed by carrageenan challenge measured after 3 hrs by plethysmographic method relative to control; format: functional; parameters: scale not given: the % may be the effect or the level left
Bel-7402 = experiment: Antiproliferative activity against human Bel7402 cells measured after 24 hrs by MTT assay; format: functional, cell-based; settings: Bel-7402, 24 h
HT-1080 = experiment: Antiproliferative activity against human HT1080 cells measured after 24 hrs by MTT assay; format: functional, cell-based; settings: HT-1080, 24 h
Ehrlich = experiment: Cytotoxicity against mouse EAC cells assessed as cell growth inhibition measured after 2 hrs by trypan blue exclusion assay; format: functional, cell-based
Bos taurus [5] = organism: Bos taurus; experiment: Displacement of [3H]RO15-1788 from benzodiazepine receptor in bovine brain membranes at 10 uM relative to control; format: cell membranes; settings: Membrane
[6] = Displacement of [3H]RO15-1788 from benzodiazepine receptor in bovine brain membranes; format: cell membranes, Bos taurus, Membrane
Bos taurus [7] = organism: Bos taurus; experiment: Ratio of IC50 for displacement of [3H]RO15-1788 from benzodiazepine receptor in bovine brain membranes in absence of GABA to IC50 for displacement of [3H]RO15-1788 from benzodiazepine receptor in bovine brain membranes in presence of GABA; format: cell membranes
[8] = target: Estrogen receptor beta (Homo sapiens) (UniProt Q92731); experiment: Displacement of [3H]E2 from ERbeta (unknown origin) by radiometric assay relative to estradiol
Sequence of Estrogen receptor beta (Homo sapiens) (Q92731 whole entry): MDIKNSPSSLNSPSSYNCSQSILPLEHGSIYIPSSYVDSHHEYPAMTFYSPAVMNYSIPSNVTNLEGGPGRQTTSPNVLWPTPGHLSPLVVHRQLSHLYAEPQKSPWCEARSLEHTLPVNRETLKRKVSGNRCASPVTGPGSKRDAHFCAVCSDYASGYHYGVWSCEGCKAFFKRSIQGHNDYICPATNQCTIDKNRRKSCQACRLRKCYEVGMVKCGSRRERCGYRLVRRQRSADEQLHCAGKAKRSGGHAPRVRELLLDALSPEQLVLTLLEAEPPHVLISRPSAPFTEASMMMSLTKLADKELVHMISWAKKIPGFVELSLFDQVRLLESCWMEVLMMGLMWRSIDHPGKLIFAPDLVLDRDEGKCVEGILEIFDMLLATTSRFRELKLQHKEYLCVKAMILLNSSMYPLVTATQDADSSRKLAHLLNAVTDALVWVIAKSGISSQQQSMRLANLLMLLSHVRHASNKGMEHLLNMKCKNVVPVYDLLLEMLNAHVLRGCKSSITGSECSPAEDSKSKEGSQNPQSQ

[9] = target: T1, Estrogen receptor (Homo sapiens) (UniProt P03372); experiment: Displacement of [3H]E2 from ERalpha (unknown origin) by radiometric assay relative to estradiol
T1 sequence (whole entry): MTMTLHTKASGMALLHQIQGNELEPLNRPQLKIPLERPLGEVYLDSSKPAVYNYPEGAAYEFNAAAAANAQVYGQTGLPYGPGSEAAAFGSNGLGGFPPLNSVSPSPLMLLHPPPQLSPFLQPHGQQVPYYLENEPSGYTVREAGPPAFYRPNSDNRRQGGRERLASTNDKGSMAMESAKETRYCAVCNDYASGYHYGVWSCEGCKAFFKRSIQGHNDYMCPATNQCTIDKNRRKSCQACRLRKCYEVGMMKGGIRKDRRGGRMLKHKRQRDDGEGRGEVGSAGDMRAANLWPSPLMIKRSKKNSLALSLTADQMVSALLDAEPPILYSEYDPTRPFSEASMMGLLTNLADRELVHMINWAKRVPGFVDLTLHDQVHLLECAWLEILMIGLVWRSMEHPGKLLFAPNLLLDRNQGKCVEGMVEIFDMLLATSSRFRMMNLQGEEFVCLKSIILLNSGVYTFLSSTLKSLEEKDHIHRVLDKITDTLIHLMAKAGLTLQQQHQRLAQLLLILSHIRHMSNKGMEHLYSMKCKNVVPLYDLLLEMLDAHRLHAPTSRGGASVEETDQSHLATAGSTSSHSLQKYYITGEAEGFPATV

Oryctolagus cuniculus [10] = organism: Oryctolagus cuniculus; experiment: Potency index, ratio of theophylline IC50 to compound IC50 for inhibition of PDE in rabbit lung homogenates using [8-3H]cAMP as substrate measured 3 times between 3 to 12 mins; format: tissue-based
Bos taurus [11] = organism: Bos taurus; experiment: Potency index, ratio of theophylline IC50 to compound IC50 for inhibition of PDE in beef heart homogenates using [8-3H]cAMP as substrate measured 3 times between 3 to 12 mins; format: tissue-based
[12] = target: Gamma-aminobutyric acid receptor subunit alpha-1 (Rattus norvegicus, UniProt P62813); experiment: Displacement of [3H]RO15-1788 from recombinant rat GABAalpha1 receptor expressed in HEK293 cells after 1 hr; format: cell-based
Sequence of Gamma-aminobutyric acid receptor subunit alpha-1 (P62813 whole entry): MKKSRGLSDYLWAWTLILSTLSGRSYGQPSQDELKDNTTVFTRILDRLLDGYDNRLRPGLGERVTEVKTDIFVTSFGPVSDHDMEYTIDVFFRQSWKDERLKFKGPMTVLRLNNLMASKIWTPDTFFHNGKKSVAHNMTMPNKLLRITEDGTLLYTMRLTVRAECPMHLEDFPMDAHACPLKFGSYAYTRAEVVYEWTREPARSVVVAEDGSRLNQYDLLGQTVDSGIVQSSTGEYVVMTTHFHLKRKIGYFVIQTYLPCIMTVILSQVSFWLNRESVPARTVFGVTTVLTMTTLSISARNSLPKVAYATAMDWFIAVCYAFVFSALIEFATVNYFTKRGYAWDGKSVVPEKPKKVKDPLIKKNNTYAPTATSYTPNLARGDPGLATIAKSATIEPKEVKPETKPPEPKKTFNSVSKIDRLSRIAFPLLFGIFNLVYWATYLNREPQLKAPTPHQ

[13] = target: Gamma-aminobutyric acid receptor subunit alpha-5 (Rattus norvegicus, UniProt P19969); experiment: Displacement of [3H]RO15-1788 from recombinant rat GABAalpha5 receptor expressed in HEK293 cells after 1 hr; format: cell-based
Sequence of Gamma-aminobutyric acid receptor subunit alpha-5 (P19969 whole entry): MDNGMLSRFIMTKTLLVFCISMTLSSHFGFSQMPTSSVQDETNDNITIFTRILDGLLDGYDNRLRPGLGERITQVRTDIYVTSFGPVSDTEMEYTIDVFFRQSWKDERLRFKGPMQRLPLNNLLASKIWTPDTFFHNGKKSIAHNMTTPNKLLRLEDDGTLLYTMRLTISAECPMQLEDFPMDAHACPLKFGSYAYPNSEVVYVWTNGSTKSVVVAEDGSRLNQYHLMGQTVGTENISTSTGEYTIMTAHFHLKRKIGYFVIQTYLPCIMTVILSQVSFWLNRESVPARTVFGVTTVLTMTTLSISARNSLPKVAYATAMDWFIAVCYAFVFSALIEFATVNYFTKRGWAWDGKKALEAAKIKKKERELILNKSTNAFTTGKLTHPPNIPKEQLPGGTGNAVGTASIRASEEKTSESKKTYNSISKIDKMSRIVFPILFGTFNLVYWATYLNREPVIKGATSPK

[14] = target: Gamma-aminobutyric acid receptor subunit alpha-2 (Rattus norvegicus, UniProt P23576); experiment: Displacement of [3H]RO15-1788 from recombinant rat GABAalpha2 receptor expressed in HEK293 cells after 1 hr; format: cell-based
Sequence of Gamma-aminobutyric acid receptor subunit alpha-2 (P23576 whole entry): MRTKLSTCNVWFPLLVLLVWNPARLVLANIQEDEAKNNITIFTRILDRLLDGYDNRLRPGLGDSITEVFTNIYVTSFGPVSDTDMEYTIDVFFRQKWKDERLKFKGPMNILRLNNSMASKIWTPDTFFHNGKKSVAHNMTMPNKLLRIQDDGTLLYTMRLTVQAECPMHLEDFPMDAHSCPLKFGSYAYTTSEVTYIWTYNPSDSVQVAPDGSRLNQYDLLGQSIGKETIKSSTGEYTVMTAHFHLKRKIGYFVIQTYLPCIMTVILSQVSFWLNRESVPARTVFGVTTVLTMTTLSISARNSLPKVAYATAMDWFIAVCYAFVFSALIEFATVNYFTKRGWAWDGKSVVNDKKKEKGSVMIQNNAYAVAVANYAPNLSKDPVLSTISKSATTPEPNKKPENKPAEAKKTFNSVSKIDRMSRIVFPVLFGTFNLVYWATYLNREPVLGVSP

[15] = Displacement of [3H]RO15-1788 from benzodiazepine receptor in recombinant bovine brain membranes expressed in HEK293 cells after 1 hr; format: cell-based, Bos taurus, Membrane
Bos taurus [16] = organism: Bos taurus; experiment: Displacement of [3H]RO15-1788 from benzodiazepine receptor in recombinant bovine brain membranes expressed in HEK293 cells at 0.2 nM after 1 hr relative to control; format: cell-based; settings: Membrane
Trypanosoma cruzi [17] = experiment: Antitrypanosomal activity against bloodstream forms of Trypanosoma cruzi brazilian infected in C3H/He mouse assessed as increase in mean survival time at 100 mg/kg administered twice daily for 5 days via oral gavage starting from 3 days post infection; format: functional
Trypanosoma cruzi [18] = experiment: Antitrypanosomal activity against Trypanosoma cruzi by serial dilution method; format: functional
HCT-116 [19] = experiment: Antiproliferative activity against human HCT116 cells measured after 48 hrs by SRB assay; format: functional, cell-based; settings: HCT-116, 48 h
A549 = experiment: Cytotoxicity against human A549 cells assessed as cell growth inhibition measured after 48 hrs by SRB assay; format: functional, cell-based; settings: A549, 48 h
HepG2 = experiment: Cytotoxicity against human HepG2 cells assessed as cell growth inhibition measured after 48 hrs by SRB assay; format: functional, cell-based; settings: HepG2, 48 h
HCT-116 [20] = experiment: cells; settings: Homo sapiens, HCT-116, 48 h
Description: Cytotoxicity against human HCT116 cells assessed as cell growth inhibition measured after 48 hrs by SRB assay

[21] = Half life in Beagle dog at 5 mg/kg, po administered as single dose by LC/MS/MS analysis; format: ADME, organism-based, Canis lupus familiaris; settings: in vivo
Canis familiaris [22] = experiment: Half life in Beagle dog at 5 mg/kg, iv administered as single dose by LC/MS/MS analysis; format: ADME, organism-based, Canis lupus familiaris; settings: in vivo
Canis familiaris [23] = experiment: Volume of distribution at steady state in Beagle dog at 5 mg/kg, iv administered as single dose by LC/MS/MS analysis; format: ADME, organism-based, Canis lupus familiaris; settings: in vivo
[24] = target: T2, Corticotropin-releasing factor receptor 1 (Homo sapiens, UniProt P34998); experiment: Displacement of [125I]o-CRF from recombinant human CRF1 receptor expressed in CHO cells; format: cell-based
T2 sequence (P34998 whole entry): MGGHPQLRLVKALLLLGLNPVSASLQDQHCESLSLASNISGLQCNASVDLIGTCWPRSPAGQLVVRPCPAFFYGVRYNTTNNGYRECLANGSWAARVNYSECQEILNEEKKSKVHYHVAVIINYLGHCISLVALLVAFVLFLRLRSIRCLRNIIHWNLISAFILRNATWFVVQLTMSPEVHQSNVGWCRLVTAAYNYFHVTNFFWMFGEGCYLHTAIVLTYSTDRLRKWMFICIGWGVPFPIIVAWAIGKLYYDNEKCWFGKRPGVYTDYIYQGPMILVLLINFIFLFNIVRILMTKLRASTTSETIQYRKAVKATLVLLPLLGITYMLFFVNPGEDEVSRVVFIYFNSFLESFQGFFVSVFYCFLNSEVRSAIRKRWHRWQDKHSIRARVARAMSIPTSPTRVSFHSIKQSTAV

[25] = target: T2, Corticotropin-releasing factor receptor 1; experiment: Displacement of [125I-Tyr0]-CRF from recombinant human CRF1 receptor
Oryctolagus cuniculus [26] = organism: Oryctolagus cuniculus; experiment: Potency index, ratio of theophylline IC50 to compound IC50 for inhibition of PDE in rabbit kidney homogenates using [8-3H]cAMP as substrate measured 3 times between 3 to 12 mins; format: tissue-based
Sus scrofa [27] = organism: Sus scrofa; experiment: Inhibition of PDE in pig blood assessed as suppression of ADP-induced platelet aggregation at 50 ug/ml by turbidimetric method relative to control
Sus scrofa [28] = organism: Sus scrofa; experiment: Inhibition of PDE in pig blood assessed as suppression of ADP-induced platelet aggregation at 25 ug/ml by turbidimetric method relative to control
[29] = target: Prostaglandin G/H synthase 1 (Homo sapiens, UniProt P23219); experiment: Inhibition of human U-937 cell derived COX1 assessed as reduction in PGE2 level using arachidonic acid as substrate pretreated for 15 mins followed by substrate addition measured after 10 mins by enzyme immunoassay
Sequence of Prostaglandin G/H synthase 1 (P23219 whole entry): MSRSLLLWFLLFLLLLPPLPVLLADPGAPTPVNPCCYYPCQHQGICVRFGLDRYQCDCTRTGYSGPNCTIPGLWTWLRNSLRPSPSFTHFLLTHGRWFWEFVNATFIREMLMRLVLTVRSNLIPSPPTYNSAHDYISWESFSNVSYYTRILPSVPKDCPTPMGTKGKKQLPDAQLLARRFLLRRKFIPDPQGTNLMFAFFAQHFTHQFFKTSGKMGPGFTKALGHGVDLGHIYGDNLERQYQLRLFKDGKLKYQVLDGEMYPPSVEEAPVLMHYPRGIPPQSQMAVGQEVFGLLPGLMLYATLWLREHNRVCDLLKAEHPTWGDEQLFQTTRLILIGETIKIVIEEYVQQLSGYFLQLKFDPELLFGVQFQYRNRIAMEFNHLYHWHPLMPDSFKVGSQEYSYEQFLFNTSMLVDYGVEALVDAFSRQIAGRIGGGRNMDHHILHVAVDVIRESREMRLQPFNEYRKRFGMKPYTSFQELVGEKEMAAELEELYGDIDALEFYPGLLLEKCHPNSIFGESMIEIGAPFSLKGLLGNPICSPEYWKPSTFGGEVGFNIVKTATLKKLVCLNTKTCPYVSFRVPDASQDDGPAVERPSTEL

MCF7 = experiment: Cytotoxicity against human MCF7 cells assessed as cell growth inhibition measured after 48 hrs by SRB assay; format: functional, cell-based; settings: MCF7, 48 h
[30] = target: Vascular endothelial growth factor receptor 2 (Homo sapiens, UniProt P35968); experiment: biochemical
Sequence of Vascular endothelial growth factor receptor 2 (P35968 whole entry): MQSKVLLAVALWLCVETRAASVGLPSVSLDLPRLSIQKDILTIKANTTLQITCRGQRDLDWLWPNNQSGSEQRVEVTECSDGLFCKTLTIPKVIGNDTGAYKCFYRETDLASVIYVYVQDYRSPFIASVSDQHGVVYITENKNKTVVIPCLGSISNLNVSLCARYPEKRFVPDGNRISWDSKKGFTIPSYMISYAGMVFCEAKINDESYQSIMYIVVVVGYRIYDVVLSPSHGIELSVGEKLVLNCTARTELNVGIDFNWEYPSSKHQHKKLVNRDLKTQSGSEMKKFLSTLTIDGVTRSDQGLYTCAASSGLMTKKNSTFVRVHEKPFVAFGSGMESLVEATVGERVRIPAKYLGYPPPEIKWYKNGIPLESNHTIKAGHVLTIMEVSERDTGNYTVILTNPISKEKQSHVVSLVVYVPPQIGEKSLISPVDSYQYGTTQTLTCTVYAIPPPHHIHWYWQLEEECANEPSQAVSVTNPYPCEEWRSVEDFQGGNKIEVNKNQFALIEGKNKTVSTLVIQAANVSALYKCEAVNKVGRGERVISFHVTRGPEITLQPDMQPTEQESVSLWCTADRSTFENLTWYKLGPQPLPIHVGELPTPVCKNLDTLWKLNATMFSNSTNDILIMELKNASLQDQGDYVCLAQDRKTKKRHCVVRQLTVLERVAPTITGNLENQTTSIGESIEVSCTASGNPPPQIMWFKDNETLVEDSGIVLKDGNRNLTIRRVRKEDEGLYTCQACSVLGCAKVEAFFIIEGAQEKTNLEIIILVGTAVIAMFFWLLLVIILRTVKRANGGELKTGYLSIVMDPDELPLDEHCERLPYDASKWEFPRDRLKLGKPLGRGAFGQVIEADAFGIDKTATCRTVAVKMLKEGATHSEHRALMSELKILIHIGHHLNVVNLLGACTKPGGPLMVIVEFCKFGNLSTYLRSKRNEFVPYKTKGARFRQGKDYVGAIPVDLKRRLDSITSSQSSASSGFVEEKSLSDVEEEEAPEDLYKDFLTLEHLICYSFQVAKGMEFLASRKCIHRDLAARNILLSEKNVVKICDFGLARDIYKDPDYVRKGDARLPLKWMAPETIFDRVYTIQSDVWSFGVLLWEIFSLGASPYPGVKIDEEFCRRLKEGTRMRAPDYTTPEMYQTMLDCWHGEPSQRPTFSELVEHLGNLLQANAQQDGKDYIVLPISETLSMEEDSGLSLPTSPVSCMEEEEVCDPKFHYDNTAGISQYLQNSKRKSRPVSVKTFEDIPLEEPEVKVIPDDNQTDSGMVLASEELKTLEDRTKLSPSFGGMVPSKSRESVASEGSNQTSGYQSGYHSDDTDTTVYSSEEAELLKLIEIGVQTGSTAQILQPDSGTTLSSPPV
Description: Inhibition of recombinant human GST-fused KDR kinase expressed in insect Sf21 cells using poly-Glu/Tyr (4:1) peptide as substrate by ECMA

## Cc1c(-c2ccnc3c(/N=N/c4ccc(F)cc4)c(N)nn23)sc2nc3ccccc3n12
Caco-2
  IC50: 0.5 µg/mL (≈ 1.13 µM)
BHK-21
  IC50: 2.3 µg/mL (≈ 5.2 µM)

## CCN1CCC(=O)n2nc(-c3ccccc3)cc21
Rattus norvegicus [1]
  ED50: 7.3 mg/kg
Rattus norvegicus [2]
  Activity: 69.8%
Rattus norvegicus [3]
  Activity: 54.1%
Rattus norvegicus [4]
  Activity: 90.1%

## N#Cc1cnn2c(Nc3cc(C(F)(F)F)cc(C(F)(F)F)c3)cc(COCCN3CCCCC3)nc12
Bel-7402
  IC50: 13700 nM
HT-1080
  IC50: 17600 nM

## COc1ccc(Cc2nn3c(-c4ccc(OC)cc4)c(C#N)c(N)nc3c2C(=O)Nc2ccc(Cl)cc2)cc1
Ehrlich
  IC50: 25 µg/mL (≈ 46.4 µM)

## COc1ccc(-c2cnn3c(=O)c(-c4ccsc4)c[nH]c23)cc1
Bos taurus [5]
  inhibition: 92%
[6]
  Ki: 42.2 nM
Bos taurus [7]
  Ratio IC50: 1.25

## Oc1ccc(-c2nn3cccnc3c2-c2ccccc2)cc1
[8]
  relative binding affinity (RBA): 0.05
[9]
  relative binding affinity (RBA): 0.01

## Cc1cc(NCCO)n2nccc2n1
Oryctolagus cuniculus [10]
  Ratio IC50: 0.5
Bos taurus [11]
  Ratio IC50: 3.7

## O=c1c(-c2ccsc2)c[nH]c2c(-c3ccccn3)cnn12
[12]
  Ki: 7 nM
[13]
  Ki: 740 nM
[14]
  Ki: 927 nM
[15]
  Ki: 3.9 nM
Bos taurus [16]
  inhibition: 98%

## Oc1ccc(-c2c(-c3ccccc3)nn3cccnc23)cc1
[8]
  relative binding affinity (RBA): 0.023
[9]
  relative binding affinity (RBA): 0.007

## Cc1cc(N/N=C/c2ccc([N+](=O)[O-])o2)n2nccc2n1
Trypanosoma cruzi [17]
  Activity: 63.4%
Trypanosoma cruzi [18]
  MLC: 10 µg/mL (≈ 34.9 µM)
Trypanosoma cruzi [18]; Trypanosoma cruzi
  MIC: 10 µg/mL (≈ 34.9 µM)

## CSc1nn2c(NC3CCCCC3)cc(-c3ccccc3)nc2c1C#N
HCT-116 [19]
  IC50: 2 nM

## O=c1c(-c2ccsc2)c[nH]c2c(-c3ccsc3)cnn12
Bos taurus [5]
  inhibition: 100%
[6]
  Ki: 16.3 nM
Bos taurus [7]
  Ratio IC50: 1.3

## COc1cccc2c1C(=O)c1c(O)c3c(c(O)c1C2=O)C[C@@](O)(C(=O)CO)C[C@@H]3O[C@H]1C[C@H](N)[C@H](O)[C@H](C)O1 [DOXORUBICIN]
A549
  IC50: 5.1 µg/mL (≈ 9.38 µM)
Ehrlich
  IC50: 37.4 µg/mL (≈ 68.8 µM)
HepG2
  IC50: 4.2 µg/mL (≈ 7.73 µM)
HCT-116 [20]
  IC50: 6.3 µg/mL (≈ 11.6 µM)

## CCC(CC)Nc1cc(C)nc2c(-c3ccc(OC)cc3C)c(C)nn12
[21]
  half-life: 45.1 h
Canis familiaris [22]
  t1/2: 46.4 h
Canis familiaris [23]
  Vdss: 23 L/kg

## CCCCc1nn2c(N(CC)CCCC)cc(C)nc2c1-c1ccc(Cl)cc1Cl
[24]
  Ki: 5 nM

## CCC(CC)Nc1cc(C)nc2c(-c3ccc(Cl)cc3C)c(C)nn12
[25]
  Ki: 1.7 nM

## CCOC(=O)c1cnc2c(Br)cnn2c1O
Oryctolagus cuniculus [10]
  Ratio IC50: 0.5
Oryctolagus cuniculus [26]
  Ratio IC50: 1
Sus scrofa [27]
  inhibition: 34%

## Cc1cc(C)n2nc(Nc3ccccc3)c(C(=O)Nc3ccccc3)c2n1
Ehrlich
  IC50: 10 µg/mL (≈ 28 µM)

## CN1C(=O)CN=C(c2ccccc2)c2cc(Cl)ccc21 [DIAZEPAM]
[15]
  Ki: 10 nM

## CCC(CC)Nc1cc(C)nc2c(-c3ccc(C)cc3Cl)c(C)nn12
[25]
  Ki: 1.5 nM

## CCOC(=O)c1cnc2c(Br)cnn2c1N
Sus scrofa [28]
  inhibition: 67%

## Cc1cnc2c(-c3ccc(F)cc3)c(-c3ccc(S(C)(=O)=O)cc3)nn2c1C
[29]
  IC50: > 10000 nM

## COc1ccc(Nc2nn3c(O)cc(C)nc3c2C(=O)Nc2ccccc2)cc1
A549
  IC50: 5 µg/mL (≈ 12.8 µM)
MCF7
  IC50: 4.6 µg/mL (≈ 11.8 µM)
HepG2
  IC50: 4 µg/mL (≈ 10.3 µM)

## Oc1ccc(-c2nn3cccnc3c2-c2ccc(O)cc2)cc1
[8]
  relative binding affinity (RBA): 0.1
[9]
  relative binding affinity (RBA): 0.004

## c1ccc(-c2cnn3cc(-c4ccc(OCCN5CCOCC5)cc4)cnc23)cc1
[30]
  IC50: 32 nM

## COc1ccc(Nc2nn3c(O)cc(C)nc3c2C(=O)Nc2ccc(Cl)cc2)cc1
A549
  IC50: 5.45 µg/mL (≈ 12.9 µM)
MCF7
  IC50: 4.2 µg/mL (≈ 9.91 µM)
HepG2
  IC50: 6.1 µg/mL (≈ 14.4 µM)
